How the values were obtained:
Assay type in all cases: cell-based
[1] = test system: MCF-7 cells; test: Inhibition of cell proliferation of MCF-7 cells (CCK-8, 9 days); conditions: treated for 9 days, CCK-8 kit (Table 6)
Summary of the method: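 Read-out was CCK-8 viability after 9-day continuous exposure (37°C, 5% CO2) of MCF-7 cells plated at 800/well in 10% FBS DMEM across several compound concentrations. Values are proliferation IC50s.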

[2] = molecular target: T1, ERα (Homo sapiens, UniProt P03372); test: Degradation of ERα in MCF-7 cells (immunoblotting, 4 h)
T1 sequence (P03372 1-595): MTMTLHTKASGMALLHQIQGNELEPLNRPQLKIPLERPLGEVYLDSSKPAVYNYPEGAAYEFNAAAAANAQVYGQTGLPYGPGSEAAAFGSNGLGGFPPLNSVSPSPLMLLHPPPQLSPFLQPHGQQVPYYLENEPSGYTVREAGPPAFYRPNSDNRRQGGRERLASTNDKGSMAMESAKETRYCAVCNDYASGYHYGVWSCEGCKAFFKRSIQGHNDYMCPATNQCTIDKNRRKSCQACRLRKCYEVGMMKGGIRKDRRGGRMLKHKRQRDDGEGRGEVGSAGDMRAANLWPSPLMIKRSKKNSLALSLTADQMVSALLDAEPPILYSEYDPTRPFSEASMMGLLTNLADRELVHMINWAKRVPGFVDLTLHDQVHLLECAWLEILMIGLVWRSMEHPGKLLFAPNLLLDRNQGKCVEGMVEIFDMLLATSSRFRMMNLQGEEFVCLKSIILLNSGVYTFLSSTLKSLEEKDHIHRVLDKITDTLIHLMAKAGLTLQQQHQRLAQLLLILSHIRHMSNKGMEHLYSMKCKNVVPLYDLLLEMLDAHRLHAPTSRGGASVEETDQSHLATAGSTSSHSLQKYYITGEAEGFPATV
Summary of the method: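 Degradation rate reflects ERα band intensity, corrected to an internal reference protein, relative to control. Values come from Western blotting of lysates from MCF-7 cells exposed 4 h at 37°C to compounds at final concentrations of 0.15-1000nM.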

[3] = molecular target: T1, ERα; test: Degradation of ERα in T-47D cells (immunoblotting, 4 h); set-up: host or cells: T-47D
Summary of the method: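 ERα protein levels were assessed by immunoblot of RIPA lysates (with protease inhibitor) after 4 h exposure at 37°C. Compound was added in DMSO to T-47D cells at final concentrations of 0.15-1000 nM.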

IC50 [1]	Degradation rate (%) of ERα in MCF-7 cells ([2]; 1nM compound)	Degradation rate (%) of ERα in MCF-7 cells ([2]; 10nM compound)	Degradation rate (%) of ERα in T-47D cells ([3]; 1nM compound)	Degradation rate (%) of ERα in T-47D cells ([3]; 10nM compound)	Structure (SMILES)
1630 nM	42%	64%	47%	73%	O=C1CCC(N2Cc3c(ccc4c3OCC43CCN(C(=O)CN4CC5(C4)CN(c4ccc([C@@H]6c7ccc(O)cc7CC[C@@H]6c6ccccc6)cc4)C5)CC3)C2=O)C(=O)N1 (some centres unmarked) [B20]
220 nM	-3%	14%	20%	67%	O=C1CCC(N2Cc3cc4c(cc3C2=O)OC2(CC4)CN(C3CCC4(CC3)CCN(C3CCN(c5ccc([C@@H]6c7ccc(O)cc7CC[C@@H]6c6ccccc6)cc5)CC3)CC4)C2)C(=O)N1 (some centres unmarked) [K14]
1260 nM	-9%	-11%	1%	2%	O=C1CCC(N2Cc3cc4c(cc3C2=O)OC2(CC4)CN(C3CC4(CCC5(CC4)CN(c4ccc([C@@H]6c7ccc(O)cc7CC[C@@H]6c6ccccc6)cc4)C5)C3)C2)C(=O)N1 (some centres unmarked) [H26]
22.6 nM	32%	60%	8%	51%	O=C1CCC(N2Cc3c(ccc4c3OCC43CCN(C4C5CCC4CN(C(=O)C4CCN(c6ccc([C@@H]7c8ccc(O)cc8CC[C@@H]7c7ccccc7)cc6)CC4)C5)CC3)C2=O)C(=O)N1 (some centres unmarked) [J4]
1990 nM	-10%	3%	8%	16%	O=C1CCC(N2Cc3c(ccc4c3OC3(CC4)CCN(C4CN(C5CCN(c6ccc([C@@H]7c8ccc(O)cc8CC[C@@H]7c7ccccc7)cc6)CC5)C4)CC3)C2=O)C(=O)N1 (some centres unmarked) [K2]
19.1 nM	11%	40%	35%	77%	O=C1CCC(N2C(=O)c3ccc4c(c3C2=O)OCC42CCN(C(=O)CN3CCC4(CC3)CCN(c3ccc([C@@H]5c6ccc(O)cc6CC[C@@H]5c5ccccc5)cc3)CC4)CC2)C(=O)N1 (some centres unmarked) [A68]
12.5 nM	3%	58%	24%	77%	C[C@@H]1Cc2c([nH]c3ccccc23)[C@@H](c2c(F)cc(N3CCC4(CC3)CC(N3CC[C@@H](N5CCC6(CC5)COc5c6ccc6c5CN(C5CCC(=O)NC5=O)C6=O)[C@@H](F)C3)C4)cc2F)N1CC(F)F (some centres unmarked) [D10]
125 nM	23%	23%	14%	50%	O=C1CCC(N2Cc3c(ccc4c3OC3(CC4)CCN(C(=O)CN4CCC5(CC4)CCN(c4ccc([C@@H]6c7ccc(O)cc7CC[C@@H]6c6ccccc6)cc4)CC5)CC3)C2=O)C(=O)N1 (some centres unmarked) [A65]
486 nM	29%	75%	16%	67%	COC(=O)[C@H]1CC(N2CCC3(CC2)COc2c3ccc3c2CN(C2CCC(=O)NC2=O)C3=O)CCN1CC1CCN(c2ccc([C@@H]3c4ccc(O)cc4CC[C@@H]3c3ccccc3)cc2)CC1 (some centres unmarked) [J7]
11.8 nM	38%	70%	47%	83%	O=C1CCC(N2Cc3c(ccc4c3OCC43CCN(CC(=O)N4CCC5(CC4)CN(c4ccc([C@@H]6c7ccc(O)cc7CC[C@@H]6c6ccccc6)cc4)C5)CC3)C2=O)C(=O)N1 (some centres unmarked) [B22]
179 nM	64%	71%	71%	83%	CN(CC1CCN(c2ccc([C@@H]3c4ccc(O)cc4CC[C@@H]3c3ccccc3)cc2)CC1)[C@H]1CC[C@@H](C(=O)N2CCC3(CC2)COc2c3ccc3c2CN(C2CCC(=O)NC2=O)C3=O)CC1 (some centres unmarked) [B34]
4170 nM	-6%	7%	-35%	-32%	O=C1CCC(N2Cc3cc4c(cc3C2=O)C2(CCN(CC3CCN(c5ccc([C@@H]6c7ccc(O)cc7CC[C@@H]6c6ccccc6)cc5)CC3)CC2)CO4)C(=O)N1 (some centres unmarked) [H6]
140 nM	53%	77%	50%	81%	O=C1CCC(N2Cc3c(ccc4c3OCC43CCN(CC(=O)NC4CC5(CCN(c6ccc([C@@H]7c8ccc(O)cc8CC[C@@H]7c7ccccc7)cc6)CC5)C4)CC3)C2=O)C(=O)N1 (some centres unmarked) [H46]
4.89 nM	78%	85%	79%	81%	O=C1CCC(N2Cc3c(ccc4c3OCC43CCN(C(=O)C4CCN(CC5CCN(c6ccc([C@@H]7c8ccc(O)cc8CC[C@@H]7c7ccccc7)cc6)CC5)CC4)CC3)C2=O)C(=O)N1 (some centres unmarked) [J8]
180 nM	61%	58%	68%	80%	O=C1CCC(N2Cc3c(ccc4c3OCC43CCN(CC4CN(C(=O)C5CCN(c6ccc([C@@H]7c8ccc(O)cc8CC[C@@H]7c7ccccc7)cc6)CC5)C4)CC3)C2=O)C(=O)N1 (some centres unmarked) [D5]
203 nM	63%	63%	61%	68%	C[C@@H]1Cc2cc(O)ccc2C(c2c(F)cc(N3CCC4(CCN(CC(=O)N5CCC6(CC5)COc5c6ccc6c5CN(C5CCC(=O)NC5=O)C6=O)C4)CC3)cc2F)N1CC(F)F (some centres unmarked) [F8]
10.2 nM	-19%	20%	39%	72%	O=C1CCC(N2Cc3c(ccc4c3OC3(CC4)CCN(C4CCN(C(=O)C5CCN(c6ccc([C@@H]7c8ccc(O)cc8CC[C@@H]7c7ccccc7)cc6)CC5)CC4)CC3)C2=O)C(=O)N1 (some centres unmarked) [G15]
2250 nM	-5%	21%	24%	47%	CN(C(=O)CN1CCC2(CC1)COc1cc3c(cc12)CN(C1CCC(=O)NC1=O)C3=O)C1CCC2(CC1)CN(c1ccc([C@@H]3c4ccc(O)cc4CC[C@@H]3c3ccccc3)cc1)C2 (some centres unmarked) [H56]
5.26 nM	63%	74%	56%	77%	O=C1CCC(N2Cc3c(ccc4c3OCC43CCN(C4CCN(C(=O)C5CCC6(CC5)CN(c5ccc([C@@H]7c8ccc(O)cc8CC[C@@H]7c7ccccc7)cc5)C6)CC4)CC3)C2=O)C(=O)N1 (some centres unmarked) [A84]
19300 nM	-6%	12%	40%	68%	O=C1CCC(N2Cc3cc4c(cc3C2=O)CCC2(CN(C(=O)CN3CCC5(CCN(c6ccc([C@@H]7c8ccc(O)cc8CC[C@@H]7c7ccccc7)cc6)CC5)C3)C2)O4)C(=O)N1 (some centres unmarked) [A76]
129 nM	63%	77%	49%	78%	O=C1CCC(N2Cc3c(ccc4c3OCC43CCN(C[C@H]4CC[C@H](C(=O)N5CCN(c6ccc([C@@H]7c8ccc(O)cc8CC[C@@H]7c7ccccc7)cc6)CC5)CC4)CC3)C2=O)C(=O)N1 (some centres unmarked) [G18]
4170 nM	26%	72%	55%	73%	O=C1CCC(N2Cc3c(ccc4c3OCC43CCN(CCNC(=O)C4CCC5(CC4)CCN(c4ccc([C@@H]6c7ccc(O)cc7CC[C@@H]6c6ccccc6)cc4)CC5)CC3)C2=O)C(=O)N1 (some centres unmarked) [B19]

From patent EP4656642A1, “ESTROGEN RECEPTOR PROTEOLYSIS TARGETING CHIMERA COMPOUND AND USE THEREOF” (GAN & LEE PHARM CO., LTD, priority 2023, dated 2024)
